Assay results reported in US10759905B2, “Biodegradable amphiphilic polymer, polymeric vesicles prepared therefrom, and application of biodegradable amphiphilic polymer in preparation of medicines for targeted therapy of lung cancer” (priority 2015, dated 2020).
Where a name gives a salt, the structure may show the parent alone.

Columns and labels:
[1] = system: H460 subcutaneous lung cancer; assay: Anti-tumor effect in mice bearing H460 subcutaneous lung cancer; format: in vivo
Source text: The establishment of a subcutaneous H460 tumor-bearing mice model was the same as that in Example 33.

[2] = system: orthotopic A549 lung cancer (A549-Luc); conditions: for bioluminescence intensity of the lung tumor / tumor growth: i.v. on Days 0, 4, 8 and 12, within 16 days; for survival of the mice (all survived / all dead): orthotopic A549
Protocol: Balb/C nude mice weighing approximately 18 to 20 grams (aged 4 to 6 weeks) were selected for the experiment. 5×10^6 bioluminescent A549 human lung cancer cells (A549-Luc) were directly injected in the lungs. After about 10 days, the mice were observed by an in vivo imaging system for small animals. […] From Day 0 to Day 16, the body weights of the mice were measured every four days. The bioluminescence intensity of the lung tumor in mice was monitored using an in vivo imaging system for small animals. The survival of the mice was observed up to 45 days.
The PTG-loaded cRGD/CLPs, the non-targeted self-crosslinked polymeric vesicle CLPs, Taxol, and PBS were injected into mice, respectively.

[3] = system: H460 human lung cancer cells; assay: MTT assay, toxicity of drug-loaded vesicles on H460 cells; format: cell-based; conditions: NCI-H460, 4 h co-cultivation, then 44 h in fresh medium
Protocol: MTT assay was used to test the toxicity of the polymeric vesicles on H460 human lung cancer cells. […] After co-cultivation for 4 hours, the samples were aspirated and replaced with fresh medium to continue incubation for 44 hours. The subsequent addition of MTT, treatment, and measurement of absorbance were the same as those in Example 26.

A549 lung cancer cells = assay: MTT assay, toxicity of drug-loaded vesicles on A549 cells; format: cell-based; conditions: Homo sapiens, A549, read-out: half inhibition concentration (IC50) for A549 cells
Protocol: The toxicity of the polymeric vesicles on A549 cells was tested by MTT assay. […] The concentrations of DOX.HCl were 0.01, 0.1, 0.5, 1, 5, 10, 20 and 40 μg/mL, respectively. The content of the targeting molecules ranged from 10%, 20% to 30%; the non-targeted drug-loaded self-crosslinked polymeric vesicle group and the free DOX.HCl group were used as control groups. After co-cultivation for 4 hours, the samples were aspirated and replaced with fresh medium to continue incubation for 44 hours.

[4] = system: A549 subcutaneous lung cancer; assay: Anti-tumor effect in mice bearing A549 subcutaneous lung cancer; format: in vivo; conditions: i.v. on Day 0, 4, 8 and 12, DOX 10 mg/kg; Day 18
Protocol: The volumes of the tumor were measured by a vernier caliper. The tumor volume was calculated as: V=(L×W×H)/2 (wherein L was the tumor length, W was the tumor width, and H was the tumor thickness). The survival of the mice were observed up to 45 days.
The establishment of a subcutaneous A549 tumor-bearing mice model, administration via tail vein, and data collection were the same as those in Example 37.

in vivo = conditions: Balb/C nude, mouse, iv, 10 mg/kg

Compound	body weight decrease ([1]; Day 10) [%]	tumor growth ([1]; i.v., CPT.HCl, Day 18)	survival of the mice (all survived / all dead) ([1]; subcutaneous H460) [days]	body weight decrease ([2]; Day 3) [%]	bioluminescence intensity of the lung tumor / tumor growth [2]	survival of the mice (all survived / all dead) [2] [days]	IC50 [3] [µg/mL]	IC50 (A549 lung cancer cells) [µg/mL]	tumor growth [4]	half-life (in vivo) [min]
CCc1c2c(nc3ccc(OC(=O)N4CCC(N5CCCCC5)CC4)cc13)-c1cc3c(c(=O)n1C2)COC(=O)[C@]3(O)CC [CPT.HCl, irinotecan hydrochloride]	18	could also inhibit the growth of tumor	≤ 28	21	could also inhibit the growth of tumor	≤ 34	3.09	–	–	–
COc1cccc2c1C(=O)c1c(O)c3c(c(O)c1C2=O)C[C@@](O)(C(=O)CO)C[C@@H]3O[C@H]1C[C@H](N)[C@H](O)[C@H](C)O1 [DOX.HCl, doxorubicin hydrochloride]	–	–	–	–	could also inhibit the growth of tumor	≤ 30	–	4.89	could also inhibit the growth of tumor	16.2
CC(=O)O[C@H]1C(=O)[C@@]2(C)[C@H]([C@H](OC(=O)c3ccccc3)[C@]3(O)C[C@H](OC(=O)[C@H](O)[C@@H](NC(=O)c4ccccc4)c4ccccc4)C(C)=C1C3(C)C)[C@]1(OC(C)=O)CO[C@@H]1C[C@@H]2O [PTX, paclitaxel]	–	–	–	–	could also inhibit the growth of tumor	≤ 29	–	–	–	–
